For orientation: IC50 means the concentration at which inhibition is half-maximal.

Test [1] deals with Plasmodium falciparum. The test is described as follows: Antiplasmodial activity against chloroquine-resistant Plasmodium falciparum W2. It is filed as functional, organism-based.
Test [2] concerns Venezuelan equine encephalitis virus. Kind of test: Antiviral activity against Venezuelan equine encephalomyelitis virus. Format: functional, organism-based.
Test [3] relates to Yellow fever virus. The test is described as follows: Antiviral activity against yellow fever virus. It is filed as functional, organism-based.
Test [4] concerns Influenza A virus. The test is described as follows: Antiviral activity against Influenza A virus H1N1. Format: functional, organism-based.
For test [5], the system named is Mycobacterium tuberculosis. The test is described as follows: Antituberculosis activity against Mycobacterium tuberculosis H37Rv at 128 ug/mL. It is filed as functional.
Test [6] relates to dengue virus type 2. The test is described as follows: Antiviral activity against Dengue virus type 2. It is filed as functional, organism-based.
The subject of test [7] is Influenza B virus. Kind of test: Antiviral activity against Influenza B virus. It is filed as functional, organism-based.
The test system of test [8] is Influenza A virus H3N2. The test is described as follows: Antiviral activity against Influenza A virus H3N2. Format: functional, organism-based.
The subject of test [9] is West Nile virus. The test is described as follows: Antiviral activity against West Nile virus. It is filed as functional, organism-based.
For test [10], the system named is Hepatitis B virus. The test is described as follows: Antiviral activity against Hepatitis B virus. It is filed as functional, organism-based.
Test [11] concerns Hepatitis C virus. The test is described as follows: Antiviral activity against HCV. It is filed as functional, organism-based. The settings on record: Hepacivirus hominis.
In test [12] the test system is Respiratory syncytial virus. The test is described as follows: Antiviral activity against RSV type A. Format: functional, organism-based.
The test system of test [13] is CCRF-CEM. Kind of test: Cytotoxicity against human CCRF-CEM cells. It is filed as functional, cell-based.
Test [14] relates to Human gammaherpesvirus 4. Kind of test: Antiviral activity against Epstein-Barr virus. It is filed as functional, organism-based.

In brackets after ≈: the same amount, converted by molar mass. Activity calls are given as the source filed them. The calls are words filed in the database; no cut-off is given here.

The molecule `C=C1CC2OC3[C@H]4C(C[C@@H](C)[C@@H](OC(C)=O)[C@@H]24)[C@@H](C)CO[C@@]3(C)CC[C@H]1OO` (stereo partly drawn) displayed an IC50 in [1] of 13 µg/mL (≈ 33 µM). The outcome in test [2], in [3], in test [4], in test [5], in [6] and in test [7] was inactive. Moreover, the outcome in [8], in test [9], in test [10], in test [11] and in [12] was inactive.
`CCCC(=O)O[C@]1(C)CCC2[C@@H]3C4OC(C/C(C)=C\CC[C@]4(C)OC(=O)[C@@H]2C)[C@@H]31` (stereo partly drawn) [BRIARELLIN R]: the values for the IC50 in test [1] and in [13] were 15 µg/mL (≈ 37.1 µM) and 8.9 µg/mL (≈ 22 µM), respectively. For the same molecule, the result in test [4], in test [7], in test [8], in test [9] and in [11] was inactive. The Activity in test [5] is 91%.
In [1], `C=C1CC2OC3[C@H]4C(C[C@@H](C)[C@@H](OC(C)=O)[C@@H]24)[C@@H](C)CO[C@@]3(C)CC[C@@H]1O` (stereo partly drawn) displayed an IC50 of 17 µg/mL (≈ 44.9 µM). Besides, the result in test [2], in [3], in test [4], in test [5], in [6] and in test [7] was inactive. Also, the outcome in test [8], in test [9], in [10], in test [11] and in test [12] was inactive.
Consider `CC(=O)O[C@H]1[C@H]2C3CC(=O)CCC[C@]4(C)OC[C@H](C)C(C[C@H]1C)[C@@H]2C4O3` (stereo partly drawn) [NOR-ASBESTININ A], for which the IC50 in test [1] is 14 µg/mL (≈ 38.4 µM). Also, the outcome in test [2], in [3], in test [4], in test [5], in test [6] and in [7] was inactive. Moreover, the outcome in test [8], in test [9], in test [10], in test [11] and in test [12] was inactive.
In test [1], `CO[C@@H]1CC[C@]2(C)OC[C@H](C)C3C[C@@H](C)[C@@H](OC(C)=O)[C@H]4C(C[C@H]1C)OC2[C@@H]34` (stereo partly drawn) registered an IC50 of 16 µg/mL (≈ 40.6 µM). Also, the outcome in [2], in test [3], in test [4], in test [5], in [6] and in test [7] was inactive. In addition, the result in test [8], in test [9], in [10], in test [11] and in test [12] was inactive.
Regarding `CCCC(=O)O[C@]1(C)CCC2[C@@H]3C(OC(CC(C)=O)[C@@H]31)[C@](C)(CCC(=O)O)OC(=O)[C@@H]2C` (stereo partly drawn), the IC50 in test [1] turned out to be 20 µg/mL (≈ 44.2 µM).
Regarding `CC(=O)O[C@H]1[C@H]2C3/C=C(/C)[C@H](O)CC[C@]4(C)OC[C@H](C)C(C[C@H]1C)[C@@H]2C4O3` (stereo partly drawn), the IC50 in test [1] was determined as 18 µg/mL (≈ 47.6 µM). For the same molecule, the result in test [2], in test [3], in [4], in [5], in [6] and in test [7] was inactive. Besides, the outcome in test [8], in test [9], in test [10], in [11] and in [12] was inactive.
As for `C=C1CC2OC3[C@H]4C(C[C@@H](C)[C@@H](OC(C)=O)[C@@H]24)[C@@H](C)CO[C@@]3(C)CCC1=O` (stereo partly drawn), the IC50 in test [1] was found to be 9 µg/mL (≈ 23.9 µM); in test [14], 0.25 µg/mL (≈ 0.664 µM). Further, the result in [2], in [3], in test [4], in [5], in test [6] and in [7] was inactive. For the same molecule, the result in test [8], in [9], in [10], in test [11] and in [12] was inactive.
Take `CCCC(=O)O[C@]1(C)CCC2[C@@H]3C4OC(C[C@](C)(O)[C@H](O)CC[C@]4(C)OC(=O)[C@@H]2C)[C@@H]31` (stereo partly drawn) [BRIARELLIN Q]: in [1], it took 3 µg/mL (≈ 6.84 µM) to reach half-maximal inhibition (IC50). Further, in test [5], the Activity is reported as 43%.
`CC(=O)O[C@H]1[C@H]2C3C[C@](C)(O)C(=O)CC[C@]4(C)OC[C@H](C)C(C[C@H]1C)[C@@H]2C4O3` (stereo partly drawn) yielded an IC50 in test [1] of 18 µg/mL (≈ 45.6 µM).
Consider `C=C1CC2OC3[C@H]4C(C[C@@H](C)[C@@H](OC(C)=O)[C@@H]24)[C@@H](C)CO[C@@]3(C)CC[C@H]1O` (stereo partly drawn), for which the IC50 in test [1] amounted to 13 µg/mL (≈ 34.3 µM). The outcome in test [2], in test [3], in test [4], in test [5], in test [6] and in test [7] was inactive. Besides, the result in [8], in test [9], in test [10], in [11] and in [12] was inactive.
For the molecule `CO[C@@H]1CC[C@]2(C)OC[C@H](C)C3C[C@@H](C)[C@@H](OC(C)=O)[C@H]4C(C[C@@]1(C)O)OC2[C@@H]34` (stereo partly drawn), in [1], the IC50 was ≥ 50 µg/mL.

(Values after ChEMBL document CHEMBL1158127, “Bioactive compounds from the gorgonian Briareum polyanthes. Correction of the structures of four asbestinane-type diterpenes” (J Nat Prod, 2006).)
